Measurements as given in patent US20080063723A1, “ISOTHIAZOLIN-3-ONE-CONTAINING ANTIMICROBIAL COMPOSITION” (priority 2006, published 2008).

Key:
Type in all cases: cell-based
[1] = test system: two common mold species (Aspergillus and Fusarium); assay: Mold control on treated wood, overall statements for both molds
Experimental: (§1) To determine the effectiveness of compositions containing an alkyl amine in combination with OIT and/or BBIT, such compositions were compared to compositions containing only an alkyl amine or compositions containing only OIT or BBIT. The efficacy of those compositions was shown by applying the compositions to Southern Yellow Pine (SYP) wood samples.
(§2) After the SYP samples were treated with the particular composition to be evaluated, the samples were placed onto a support in an extra depth Petri-dish.
(§3) A fungal spore suspension of two common mold species (Aspergillus and Fusarium) was spread on top of the wood sample. Fungal hyphal growth on the surface of samples was examined under the microscope once every week. The scale based on mycelial coverage of wood surface is as follows:
(§4) To evaluate the effectiveness of the compositions against common species of mold, compositions containing various levels of BBIT, OIT and C12-alkyl amine or a mixture of these components were tested on SYP wood blocks using the testing protocol discussed above. Specifically, compositions shown in Table 2A were applied to the wood blocks to determine anti-fungal efficacy of the compositions.
It is noted that compositions containing OIT and C12-alkyl amine were obtained by mixing compositions A0 and B0 in the recited ratio. […]

[2] = test system: Aspergillus sp; assay: Mold growth on treated Southern Yellow Pine wood samples, Aspergillus
Experimental: as §1, §2, §3, §4
(§5) It is noted that compositions containing OIT and C12-alkyl amine were obtained by mixing compositions A0 and B0 in the recited ratio. Likewise, compositions containing BBIT and C12-alkyl amine were obtained by mixing compositions A0and C0.

[3] = test system: Fusarium sp; assay: Mold growth on treated Southern Yellow Pine wood samples, Fusarium
Experimental: as §1, §2, §3, §4, §5

CCCCCCCCn1sccc1=O [OIT alone, 2-n-octyl-4-isothiazolin-3-one]
performance as a moldicide ([1]; concentration of 100 ppm): performed effectively as a moldicide | Aspergillus sp mycelial coverage ([2]; ratio 1:0, 100 ppm, 1 week): 0 (0%) | Aspergillus sp mycelial coverage ([2]; ratio 1:0, 100 ppm, 2 weeks): 0 (0%) | Aspergillus sp mycelial coverage ([2]; ratio 1:0, 100 ppm, 3 weeks): 1 (<10%) | Aspergillus sp mycelial coverage ([2]; ratio 1:0, 100 ppm, 4 weeks): 1 (<10%) | Fusarium sp mycelial coverage ([3]; ratio 1:0, 100 ppm, 1 week): 0, 0, 0, 0 (0%) | Fusarium sp mycelial coverage ([3]; ratio 1:0, 100 ppm, 2 weeks): 0, 0, 0, 0 (0%) | Fusarium sp mycelial coverage ([3]; ratio 1:0, 100 ppm, 3 weeks): 0, 0, 0, 0 (0%) | Fusarium sp mycelial coverage ([3]; ratio 1:0, 100 ppm, 4 weeks): 0, 0, 0, 0 (0%)

CCCCn1sc2ccccc2c1=O [BBIT alone, N-n-butyl-1,2-benzisothiazolin-3-one]
performance as a moldicide ([1]; concentration of 80 ppm): performed effectively as a moldicide | Aspergillus sp mycelial coverage ([2]; ratio 1:0, 80 ppm, 1 week): 0 (0%) | Aspergillus sp mycelial coverage ([2]; ratio 1:0, 80 ppm, 2 weeks): 0 (0%) | Aspergillus sp mycelial coverage ([2]; ratio 1:0, 80 ppm, 3 weeks): 0 (0%) | Aspergillus sp mycelial coverage ([2]; ratio 1:0, 80 ppm, 4 weeks): 1 (<10%) | Fusarium sp mycelial coverage ([3]; ratio 1:0, 80 ppm, 1 week): 0 (0%) | Fusarium sp mycelial coverage ([3]; ratio 1:0, 80 ppm, 2 weeks): 0 (0%) | Fusarium sp mycelial coverage ([3]; ratio 1:0, 80 ppm, 3 weeks): 1 (<10%) | Fusarium sp mycelial coverage ([3]; ratio 1:0, 80 ppm, 4 weeks): 1 (<10%)

CCCCCCCCCCCCN(C)C [C12-alkyl amine alone]
Aspergillus sp mycelial coverage ([2]; Table 4, 1000 ppm, 1 week): 0 (0%) | Aspergillus sp mycelial coverage ([2]; Table 4, 1000 ppm, 2 weeks): 2 (˜10-30%) | Aspergillus sp mycelial coverage ([2]; Table 4, 1000 ppm, 3 weeks): 3 (˜30-60%) | Aspergillus sp mycelial coverage ([2]; Table 4, 1000 ppm, 4 weeks): 3 (˜30-60%) | Aspergillus sp mycelial coverage ([2]; ratio 0:1, 1000 ppm, 1 week): 0 (0%) | Aspergillus sp mycelial coverage ([2]; ratio 0:1, 1000 ppm, 2 weeks): 2 (˜10-30%) | Aspergillus sp mycelial coverage ([2]; ratio 0:1, 1000 ppm, 3 weeks): 3 (˜30-60%) | Aspergillus sp mycelial coverage ([2]; ratio 0:1, 1000 ppm, 4 weeks): 3 (˜30-60%) | performance as a moldicide ([2]; used alone, 1000 ppm, against Aspergillus): less effective | Fusarium sp mycelial coverage ([3]; Table 4, 1000 ppm, 1 week): 0, 0, 0, 0 (0%) | Fusarium sp mycelial coverage ([3]; Table 4, 1000 ppm, 2 weeks): 0, 0, 0, 0 (0%) | Fusarium sp mycelial coverage ([3]; Table 4, 1000 ppm, 3 weeks): 0, 0, 0, 0 (0%) | Fusarium sp mycelial coverage ([3]; Table 4, 1000 ppm, 4 weeks): 0, 0, 0, 0 (0%) | Fusarium sp mycelial coverage ([3]; ratio 0:1, 1000 ppm, 1 week): 0, 0, 0, 0 (0%) | Fusarium sp mycelial coverage ([3]; ratio 0:1, 1000 ppm, 2 weeks): 0, 0, 0, 0 (0%) | Fusarium sp mycelial coverage ([3]; ratio 0:1, 1000 ppm, 3 weeks): 0, 0, 0, 0 (0%) | Fusarium sp mycelial coverage ([3]; ratio 0:1, 1000 ppm, 4 weeks): 0, 0, 0, 0 (0%) | performance as a moldicide ([3]; used alone, 1000 ppm, against Fusarium): performed effectively as a moldicide
